From ChEMBL document CHEMBL1212754, “SmQnr contributes to intrinsic resistance to quinolones in Stenotrophomonas maltophilia” (2010)
Values after ≈ are worked out from the molar mass of the structure shown.

Tests used:
Type in all cases: functional
[1] = tested on: Stenotrophomonas maltophilia; assay: Antibacterial activity against Stenotrophomonas maltophilia D457 containing chromosomally encoded Smqnr gene by epsilon test
[2] = tested on: Stenotrophomonas maltophilia; assay: Antibacterial activity against Stenotrophomonas maltophilia MBS109 containing chromosomally encoded Smqnr gene by epsilon test
[3] = tested on: Stenotrophomonas maltophilia; assay: Antibacterial activity against Stenotrophomonas maltophilia MBS101 containing plasmid encoded Smqnr gene by epsilon test
[4] = tested on: Stenotrophomonas maltophilia; assay: Antibacterial activity against Stenotrophomonas maltophilia MBS108 containing both chromosomally and plasmid encoded Smqnr gene by epsilon test
[5] = tested on: Stenotrophomonas maltophilia; assay: Antibacterial activity against Stenotrophomonas maltophilia MBS82 deficient in Smqnr gene by epsilon test
[6] = tested on: Stenotrophomonas maltophilia; assay: Antibacterial activity against Stenotrophomonas maltophilia MBS100 deficient in Smqnr gene by epsilon test

| Compound | MIC [1] [µg/mL] | MIC [2] [µg/mL] | MIC [3] [µg/mL] | MIC [4] [µg/mL] | MIC [5] [µg/mL] | MIC [6] [µg/mL] |
| --- | --- | --- | --- | --- | --- | --- |
| O=C(O)c1cn(C2CC2)c2cc(N3CCNCC3)c(F)cc2c1=O [CIPROFLOXACIN] | 0.75 (≈ 2.26 µM) | 0.75 (≈ 2.26 µM) | 2 (≈ 6.04 µM) | 2 (≈ 6.04 µM) | – | – |
| COc1c(N2CCNC(C)C2)c(F)cc2c(=O)c(C(=O)O)cn(C3CC3)c12 (stereo not drawn) [GATIFLOXACIN] | 0.25 (≈ 0.666 µM) | 0.25 (≈ 0.666 µM) | 0.75 (≈ 2 µM) | 0.75 (≈ 2 µM) | 0.125 (≈ 0.333 µM) | 0.125 (≈ 0.333 µM) |
| C[C@H]1COc2c(N3CCN(C)CC3)c(F)cc3c(=O)c(C(=O)O)cn1c23.C[C@H]1COc2c(N3CCN(C)CC3)c(F)cc3c(=O)c(C(=O)O)cn1c23.O [LEVOFLOXACIN] | 0.5 | 0.5 | 1 | 1 | 0.25 | 0.25 |
| COc1c(N2C[C@@H]3CCCN[C@@H]3C2)c(F)cc2c(=O)c(C(=O)O)cn(C3CC3)c12 [MOXIFLOXACIN] | 0.19 (≈ 0.473 µM) | 0.19 (≈ 0.473 µM) | 0.75 (≈ 1.87 µM) | 0.75 (≈ 1.87 µM) | 0.064 (≈ 0.159 µM) | 0.064 (≈ 0.159 µM) |
| CC1COc2c(N3CCN(C)CC3)c(F)cc3c(=O)c(C(=O)O)cn1c23 (stereo not drawn) [OFLOXACIN] | 1 (≈ 2.77 µM) | 1 (≈ 2.77 µM) | 3 (≈ 8.3 µM) | 3 (≈ 8.3 µM) | 0.5 (≈ 1.38 µM) | 0.5 (≈ 1.38 µM) |
